{"source": "patent US20240316008A1", "about": "“TREATMENT OF SYSTEMIC IMMUNE ACTIVATION SYNDROMES” (TRANQUIS THERAPEUTICS, INC., priority 2020, published 2024)", "key": {"Ppargc1α mRNA": {"tested_on": "Ppargc1α mRNA", "test": "Ppargc1α mRNA expression in BV2 cells (rt-PCR)", "format": "cell-based, murine", "details": "concentrations ranging from 0.7 μM to 20 μM, normalized to beta-actin mRNA", "description": "RNA was processed for real-time PCR."}, "TNFα": {"tested_on": "TNFα", "test": "TNFα release by LPS-stimulated BV2 cells (ELISA)", "format": "cell-based, murine", "details": "BV-2 cells, 10 μM, ELISA at 24 hours", "description": "First, 100 μl of supernatant was removed from Cell Plate and transferred to a Dilution Plate, which was then centrifuged at 216×g for 10 minutes to remove particulates. The dilution plate was either assayed immediately or aliquots were taken and stored at stored at ≤−20° C.; repeated freeze-thaw cycles were avoided.\nNext, a standard curve was prepared by first pipetting 900 ul of Calibrator Diluent RD5K into the 700 pg/mL tube, followed by 200 μl of the appropriate calibrator diluent in the remaining tubes. The stock solution was used to produce a dilution. The resulting tubes were then thoroughly mixed. The Mouse TNFα Standard (700 pg/mL) served as the high standard, and the Calibrator Diluent RD5T served as the zero standard at 0 pg/ml.\nAssay Diluent RD1-63 (50 ul) was then added to the center of each well and mixed before and during its use. Then, 50 ul of either standard, control, or sample was added to the center of each well, and covered with adhesive strip. The plate was then mixed for 1 minute and incubated for 2 hours at room temperature.\nEach well was then aspirated and washed by filling each well with Wash Buffer (400 ul) five times. After the last wash, the remaining Wash Buffer was removed by aspirating or decanting. TNFα […] conjugate (100 ul) was then added to each well, covered with adhesive strip, incubated for 2 hours at room temperature, and washed and/or aspirated five times.\nSubstrate solution (100 ul) was then added to each well, incubated in the dark for 30 minutes at room temperature, followed by addition of 100 μl of Stop Solution and mixed. The optical density of each well was determined within 30 minutes by using a microplate reader set to 450 nm.\nPlates were read on a Spectrostar Nano machine with built-in MARS data analysis at […].\nFor TNFα ELISA, the BV-2 cells were very responsive to low concentrations of LPS. A concentration range of 0.1 ng/ml to 1,000 ng/ml was tested. 0.3 ng/ml LPS produced enough TNFα release (8-10 fold above background) from these cells after 22 hours stimulation without saturating the linear range of the ELISA detection system. If higher LPS concentrations are used for stimulating BV-2 cells, a […] is advised to stay within the linear range of the detection system. The current TNFα protocol uses 10,000 cells per well in 96 well plate. A cell count titration can optimize S/B ratio. Miniaturization from 96 well to 384 well is also feasible with this assay.\nThe TNFα ELISA assay is described in Example 5. The IL-6 assay is described below."}, "TNF-α": {"tested_on": "TNF-α", "test": "LPS-induced TNF-α production of human PBMC (CBA assay)", "format": "cell-based", "details": "100 ng/ml LPS, 24 hours, compared to no treatment", "description": "Peripheral blood mononuclear cells (PBMC) from 4 different healthy volunteers were used in this study. Fresh blood samples were collected at Stanford Blood Center and processed for PBMC isolation with Ficoll gradient. PBMC samples were stored in liquid nitrogen at […] for subsequent analysis of TNF-α production. For TNF-α stimulation, frozen PBMC samples were thawed and rested at 37° C. before cells were stimulated with 100 ng/ml of LPS for 24 hours. DMSO (1:1000 final dilution) or TQS-168 in DMSO (1:1000 final dilution) at various concentrations was added to cell cultures of LPS-stimulated PBMC to evaluate the effects of T-168 on TNF-α production of human primary myeloid cells. After 24 hours stimulation, supernatant samples from various conditions were collected and TNF-α concentrations in the supernatants analyzed with cytometric bead array (CBA) assay per protocols from BD Biosciences. TNF-α was quantified by median fluorescent intensity reading (MFI). Samples were analyzed directly after staining with LSRII flow cytometer."}, "IL-6 [1]": {"tested_on": "IL-6", "test": "LPS-stimulated IL-6 secretion from human PBMC (ELISA)", "format": "cell-based", "details": "human PBMC from a first donor, 1 ng/ml LPS, 24h", "description": "Briefly, 20,000 human PBMC were aliquoted into each well. LPS was added at 1 ng/ml and the cells incubated for 24h in the presence of LPS and TQS-168 or one of its metabolites. Readouts were human IL-6 ELISA and human TNFα ELISA. For assay, supernatants were diluted in culture medium. The supernatant dilution for the IL-6 ELISA was 1:8, and 1:2 for the human TNFα ELISA."}, "IL-6 [2]": {"tested_on": "IL-6", "test": "Spontaneous IL-6 release of PBMCs from an ALS patient (ELISA)", "format": "cell-based, human", "details": "1 μM, 24 hours, no LPS, versus medium only", "description": "PBMCs from an ALS patient were used for this study. Whole blood samples were collected from the patient and processed for PBMC isolation with Ficoll gradient method. PBMC samples were stored in liquid nitrogen at […] for subsequent analysis of IL-6 production.\nFrozen PBMC samples were thawed and rested at 37° C. […] Therefore PBMC stimulation by LPS was not required to evaluate the effects of TQS-168 and metabolite TQS-621 on IL-6 production. PBMC samples (5×10^5 cells per well) were incubated with medium only, TQS-168 (1 μM) or TQS-621 (1 μM). After 24 hours, supernatants were collected for quantification of IL-6 levels by ELISA."}, "sepsis": {"tested_on": "sepsis", "test": "Mouse model of sepsis / hyperinflammation (virus followed by LPS, as described in Wang)", "details": "mice, intravenous, various doses", "quoted_text": "Briefly, mice are anesthetized with a ketamine/xylazine mixture. A virus, such as a coronavirus, influenza virus, rhinovirus, respiratory syncytial virus, metapneumovirus, adenovirus, or a boca virus, is administered. The virus may be administered intranasally dropwise.\nNext, LPS diluted in a buffer, such as PBS, is injected intraperitoneally at specific doses.\nTo provide comparators for assessing the effects of TQS-168 and its analogs, groups of positive control mice are treated with one or more antibodies against pro-inflammatory cytokines of interest: anti-NK1.1 antibody (PK136; Bio X Cell) diluted in PBS is injected at 100 μg per injection (100 μL) retro-orbitally concurrently with each challenge; anti-IFNγ antibody (XMG1.2, Bio X Cell) is diluted in PBS and injected at 500 μg per injection (100 μL) retro-orbitally concurrently with each challenge; anti-IL6R (15A7.10 mg/kg; Bio X Cell), anti-TNFα (XT3.11, 500 μg per injection; Bio X Cell), anti-IFNαR (MAR1-5A3, 10 mg/kg; Bio X Cell), and anti-IL1β (B122, 500 μg per injection; Bio X Cell) are injected retro-orbitally. For a negative control, isotype antibody is injected retro-orbitally.\nThe pro-inflammatory cytokines can be measured using the ELISA assay described in Example 1."}}, "data": [{"compound": "CC(C)(C)c1ccc(-c2nc3ccccc3[nH]2)cc1", "note": "[TQS-168, 2-(4-tert-butylphenyl)-1H-benzimidazole]", "values": [{"measurement": "Ppargc1α mRNA expression", "setting": "Ppargc1α mRNA", "value": "induces"}, {"measurement": "suppression of TNFα production", "setting": "TNFα; 0.3 ng/ml LPS", "value": "about 25%"}, {"measurement": "inhibition at 10 µM", "setting": "TNFα; Mus musculus, 1 ng/ml LPS, read-out: inhibition of TNFα production", "value": "~35", "unit": "%"}, {"measurement": "suppression of TNFα production", "setting": "TNF-α; 5 μM", "value": "statistically significant suppression"}, {"measurement": "suppression of TNFα production", "setting": "TNF-α; 20 μM", "value": "statistically significant suppression"}, {"measurement": "LPS-stimulated IL-6 secretion from PBMCs", "setting": "IL-6 [1]", "value": "inhibition"}, {"measurement": "spontaneous release of IL-6 (amount of IL-6 produced)", "setting": "IL-6 [2]", "value": "reduction"}, {"measurement": "circulating concentrations of pro-inflammatory cytokines", "setting": "sepsis", "value": "effective in reducing"}, {"measurement": "hyperinflammatory symptoms", "setting": "sepsis", "value": "effective in reducing"}]}]}
